From paper PMC11456916, “A screen for cell envelope stress uncovers an inhibitor of prolipoprotein diacylglyceryl transferase, Lgt, in Escherichiacoli” (iScience, 2024)

Test system: 356 CRISPRi constructs in E. coli ΔtolC-pore
Assay: CRISPRi collection fitness screen with sub-inhibitory compound
Type: cell-based
Conditions: for Growth represented as mean colony biomass: 1μg/ml MAC0452936, 6ng/ml LolCDE-in-1, 250 ng/ml Vancomycin, 7 ng/ml CHIR090, n=4; for Growth, mean colony biomass (n=4): + 1μg/ml MAC0452936
How it was run: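 Mobile CRISPRi collection conjugated into the ΔtolC-pore strain and pinned on agar at 1536 density in technical quadruplicate with a sub-inhibitory MAC-0452936 concentration. No CRISPRi induction; only basal 5–10% knockdown.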

COc1ccc(C(=O)O/N=C(\c2cccs2)C(C)(C)C)cc1 [MAC0452936]
Growth represented as mean colony biomass (gRNA accA): 0.9619
Growth, mean colony biomass (n=4) (gRNA aceF): 1.536
Growth, mean colony biomass (n=4) (gRNA alaS): 1.17
Growth, mean colony biomass (n=4) (gRNA argS): 1.078
Growth, mean colony biomass (n=4) (gRNA asnS): 1.097
Growth, mean colony biomass (n=4) (gRNA bamA): 1.082
Growth, mean colony biomass (n=4) (gRNA bamD): 1.114
Growth, mean colony biomass (n=4) (gRNA bioA): 1.093
Growth, mean colony biomass (n=4) (gRNA can): 1.0791
Growth represented as mean colony biomass (gRNA cca): 0.9631
Growth represented as mean colony biomass (gRNA coaA): 0.9606
Growth, mean colony biomass (n=4) (gRNA csrA): 1.147
Growth represented as mean colony biomass (gRNA cydA): 0.9568
Growth represented as mean colony biomass (gRNA cydX): 0.9584
Growth represented as mean colony biomass (gRNA dapD): 0.9537
Growth represented as mean colony biomass (gRNA dapE): 0.9829
Growth represented as mean colony biomass (gRNA der): 0.8304
Growth represented as mean colony biomass (gRNA dfp): 0.9766
Growth, mean colony biomass (n=4) (gRNA dnaC): 1.0695
Growth represented as mean colony biomass (gRNA dnaE): 0.9743
Growth represented as mean colony biomass (gRNA dnaN): 0.9941
Growth represented as mean colony biomass (gRNA dnaX): 0.9797
Growth, mean colony biomass (n=4) (gRNA dut): 1.096
Growth represented as mean colony biomass (gRNA eno): 0.9696
Growth represented as mean colony biomass (gRNA era): 0.9809
Growth represented as mean colony biomass (gRNA fabA): 0.9981
Growth represented as mean colony biomass (gRNA fabG): 0.9894
Growth represented as mean colony biomass (gRNA fabI): 0.9716
Growth represented as mean colony biomass (gRNA fdx): 0.9955
Growth represented as mean colony biomass (gRNA fldA): 0.9924
Growth, mean colony biomass (n=4) (gRNA folA): 1.134
Growth represented as mean colony biomass (gRNA folB): 0.9792
Growth, mean colony biomass (n=4) (gRNA folC): 1.076
Growth represented as mean colony biomass (gRNA folE): 0.9726
Growth represented as mean colony biomass (gRNA folP): 0.9946
Growth represented as mean colony biomass (gRNA frr): 0.9805
Growth, mean colony biomass (n=4) (gRNA ftsA): 1.121
Growth represented as mean colony biomass (gRNA gapA): 0.983
Growth, mean colony biomass (n=4) (gRNA glmS): 1.092
Growth represented as mean colony biomass (gRNA glmU): 0.9808
Growth represented as mean colony biomass (gRNA gltX): 0.9823
Growth, mean colony biomass (n=4) (gRNA glyA): 1.091
Growth represented as mean colony biomass (gRNA groS): 0.9881
Growth represented as mean colony biomass (gRNA grpE): 0.9656
Growth represented as mean colony biomass (gRNA guaA): 0.9795
Growth, mean colony biomass (n=4) (gRNA hemD): 1.079
Growth represented as mean colony biomass (gRNA hemG): 0.9986
Growth represented as mean colony biomass (gRNA hemH): 1.001
Growth represented as mean colony biomass (gRNA hemL): 0.9838
Growth represented as mean colony biomass (gRNA higA): 0.9635
Growth represented as mean colony biomass (gRNA hisS): 0.9859
Growth represented as mean colony biomass (gRNA holD): 0.9764
Growth represented as mean colony biomass (gRNA hscA): 0.9953
Growth, mean colony biomass (n=4) (gRNA infA): 1.088
Growth represented as mean colony biomass (gRNA infC): 0.9986
Growth represented as mean colony biomass (gRNA iscU): 0.9867
Growth represented as mean colony biomass (gRNA ispB): 0.9983
Growth represented as mean colony biomass (gRNA ispF): 0.9875
Growth, mean colony biomass (n=4) (gRNA leuS): 1.417
Growth, mean colony biomass (n=4) (gRNA lexA): 1.542
Growth represented as mean colony biomass (gRNA lolC): 0.9579
Growth, mean colony biomass (n=4) (gRNA lptA): 1.476
Growth, mean colony biomass (n=4) (gRNA lptB): 1.32
Growth represented as mean colony biomass (gRNA lptC): 0.9585
Growth represented as mean colony biomass (gRNA lptE): 0.965
Growth represented as mean colony biomass (gRNA lptF): 0.9902
Growth represented as mean colony biomass (gRNA lptG): 0.9845
Growth represented as mean colony biomass (gRNA lpxC): 0.9609
Growth represented as mean colony biomass (gRNA lpxD): 0.9569
Growth, mean colony biomass (n=4) (gRNA mnmA): 1.086
Growth, mean colony biomass (n=4) (gRNA mrdB): 1.167
Growth represented as mean colony biomass (gRNA mreB): 0.9936
Growth represented as mean colony biomass (gRNA mreC): 0.9829
Growth, mean colony biomass (n=4) (gRNA msbA): 1.264
Growth, mean colony biomass (n=4) (gRNA mukF): 1.116
Growth represented as mean colony biomass (gRNA murB): 0.9708
Growth represented as mean colony biomass (gRNA murC): 0.97
Growth, mean colony biomass (n=4) (gRNA murI): 1.3051
Growth, mean colony biomass (n=4) (gRNA nadK): 1.081
Growth represented as mean colony biomass (gRNA nusB): 0.9578
Growth represented as mean colony biomass (gRNA plsB): 0.995
Growth, mean colony biomass (n=4) (gRNA prmC): 1.083
Growth represented as mean colony biomass (gRNA proS): 0.9787
Growth, mean colony biomass (n=4) (gRNA psd): 1.711
Growth, mean colony biomass (n=4) (gRNA pssA): 1.089
Growth, mean colony biomass (n=4) (gRNA ptsI): 1.104
Growth represented as mean colony biomass (gRNA racR): 0.9926
Growth, mean colony biomass (n=4) (gRNA rho): 1.226
Growth represented as mean colony biomass (gRNA ribA): 0.9923
Growth represented as mean colony biomass (gRNA ribC): 0.9978
Growth, mean colony biomass (n=4) (gRNA ribD): 1.096
Growth represented as mean colony biomass (gRNA ribF): 0.9646
Growth represented as mean colony biomass (gRNA rimM): 0.9609
Growth represented as mean colony biomass (gRNA rluD): 0.9905
Growth, mean colony biomass (n=4) (gRNA rne): 1.098
Growth represented as mean colony biomass (gRNA rpe): 0.9763
Growth, mean colony biomass (n=4) (gRNA rplA): 1.0727
Growth represented as mean colony biomass (gRNA rplD): 0.8324
Growth represented as mean colony biomass (gRNA rplE): 0.9904
Growth represented as mean colony biomass (gRNA rplJ): 0.9775
Growth represented as mean colony biomass (gRNA rplO): 0.9724
Growth, mean colony biomass (n=4) (gRNA rplP): 1.071
Growth represented as mean colony biomass (gRNA rplQ): 0.9778
Growth represented as mean colony biomass (gRNA rplS): 0.9888
Growth, mean colony biomass (n=4) (gRNA rplV): 1.1552
Growth, mean colony biomass (n=4) (gRNA rplX): 1.077
Growth represented as mean colony biomass (gRNA rplY): 0.9853
Growth, mean colony biomass (n=4) (gRNA rpmC): 1.078
Growth represented as mean colony biomass (gRNA rpmH): 0.9594
Growth represented as mean colony biomass (gRNA rpmI): 1.001
Growth, mean colony biomass (n=4) (gRNA rpoC): 1.115
Growth, mean colony biomass (n=4) (gRNA rpoE): 1.071
Growth represented as mean colony biomass (gRNA rpoH): 0.994
Growth, mean colony biomass (n=4) (gRNA rpsC): 1.101
Growth, mean colony biomass (n=4) (gRNA rpsD): 1.173
Growth represented as mean colony biomass (gRNA rpsE): 0.8351
Growth represented as mean colony biomass (gRNA rpsF): 0.9675
Growth, mean colony biomass (n=4) (gRNA rpsG): 1.126
Growth represented as mean colony biomass (gRNA rpsH): 0.8152
Growth, mean colony biomass (n=4) (gRNA rpsK): 1.169
Growth, mean colony biomass (n=4) (gRNA rpsL): 1.132
Growth, mean colony biomass (n=4) (gRNA rpsM): 1.248
Growth, mean colony biomass (n=4) (gRNA rpsR): 1.124
Growth, mean colony biomass (n=4) (gRNA rpsT): 1.094
Growth represented as mean colony biomass (gRNA rsgA): 0.8391
Growth represented as mean colony biomass (gRNA safA): 0.9619
Growth, mean colony biomass (n=4) (gRNA secA): 1.102
Growth represented as mean colony biomass (gRNA secY): 0.8296
Growth represented as mean colony biomass (gRNA serS): 0.9537
Growth represented as mean colony biomass (gRNA ssb): 0.8295
Growth represented as mean colony biomass (gRNA sucA): 0.8419
Growth, mean colony biomass (n=4) (gRNA suhB): 1.09
Growth represented as mean colony biomass (gRNA tilS): 0.9915
Growth represented as mean colony biomass (gRNA tonB): 0.9615
Growth represented as mean colony biomass (gRNA trmD): 0.9721
Growth represented as mean colony biomass (gRNA tsaB): 0.9923
Growth represented as mean colony biomass (gRNA tsaD): 0.966
Growth, mean colony biomass (n=4) (gRNA tsaE): 1.071
Growth represented as mean colony biomass (gRNA tsf): 0.966
Growth represented as mean colony biomass (gRNA tusE): 0.9697
Growth represented as mean colony biomass (gRNA tyrS): 0.9746
Growth represented as mean colony biomass (gRNA ubiB): 0.9956
Growth represented as mean colony biomass (gRNA ubiD): 0.9717
Growth, mean colony biomass (n=4) (gRNA waaA): 1.073
Growth represented as mean colony biomass (gRNA ydaS): 0.9729
Growth represented as mean colony biomass (gRNA ydcD): 0.9759
Growth represented as mean colony biomass (gRNA ydhL): 1
Growth, mean colony biomass (n=4) (gRNA yedN): 1.142
Growth represented as mean colony biomass (gRNA yejM): 0.9938
Growth represented as mean colony biomass (gRNA yffS): 0.9919
Growth represented as mean colony biomass (gRNA ygeF): 0.966
Growth, mean colony biomass (n=4) (gRNA ygeN): 1.0865
Growth represented as mean colony biomass (gRNA yidC): 0.8136
Growth represented as mean colony biomass (gRNA ymfE): 0.9804
Growth represented as mean colony biomass (gRNA ymiB): 0.9585
Growth, mean colony biomass (n=4) (gRNA yqeL): 1.316
Growth represented as mean colony biomass (gRNA yqgF): 0.9701
Growth, mean colony biomass (n=4) (gRNA zipA): 1.803
